Data as given in US20080312330A1, “Methods for Reducing Mortality and Morbidity by Postoperative Administration of a Pharmacologic Cardiovascular Agent” (priority 1996, published 2008).
Where “and” joins values, the source holds several entries; their conditions need not be identical. Identical values can stand only once.

Columns and labels:
[1] = system: patients with, or at risk for coronary artery disease and scheduled for elective noncardiac surgery; assay: Randomized, blinded, placebo-controlled trial: mortality and cardiovascular outcomes over two years following noncardiac surgery; type: in vivo
Text: Eligible patients included those with, or at risk for coronary artery disease and scheduled for elective noncardiac surgery requiring general anesthesia at the San Francisco Veterans Affairs Medical Center. The specific inclusion and exclusion criteria have been described previously (Mangano et al., 1990, N. Eng. J. Med. 323:1781-1788; Mangano et al., 1992, JAMA 268:233-239).
(§1) Patients were randomized to receive either atenolol “TENORMIN” (Zeneca Pharmaceuticals) or placebo prior to induction of anesthesia, immediately following surgery, and daily throughout their hospitalization (up to 7 days). Drug assignment, study physicians, treating clinicians, and data analysis personnel were blinded to study group throughout all phases of this trial.
(§2) Intravenous preparation consisted of two-10-ml syringes, each containing 5 mg atenolol or placebo; oral preparation consisted of two 50 mg tablets of atenolol, or two placebo tablets. Approximately one hour prior to surgery, patients entered the preoperative area and blood pressure was recorded with an automated cuff and 5-lead continuous electrocardiograph. Thirty-minutes prior to entry into the operating room, intravenous administration of study drug began. Exclusion criteria for study drug administration were heart rate <55 bpm, systolic blood pressure <100 mm Hg, or evidence of congestive heart failure, third degree heart block, or bronchospasm (ISIS-I protocol, 1986, Lancet 2:56-66). […] Immediately following surgery, the study drug was again given using the identical technique applied prior to surgery. On the morning of the first postoperative day, and daily thereafter until the patient was discharged from the hospital (up to a maximum of seven days), patients received study drug every 12 hours using the same technique for intravenous infusion, or orally (if able) at which time a tablet of atenolol (0, 50 or 100 mg) or placebo was given daily. If heart rate was >65 bpm and systolic blood pressure >100 mm Hg, 100 mg atenolol (or placebo) was given orally; if heart rate was >55 but <65 bpm and systolic blood pressure >100 mm Hg, 50 mg atenolol (or placebo) was administered; if heart rate was <55 bpm or systolic blood pressure <100 mm Hg, 0 mg atenolol (or placebo) was given. No treating clinician was allowed to observe study drug administration either prior to, or after, surgery.
(§3) All patients received general anesthesia with endotracheal intubation; preoperative medications were continued until the time of surgery, with beta-blockers replaced by study drug on the morning of surgery. There were no other protocol-based restrictions of anesthetic or surgical technique, and clinical decisions were not controlled by study protocol. Perioperative information was recorded and analyzed for possible confounding effects, and included: type and duration of surgery, anesthetic techniques, fluid and blood loss and replacement, cardiovascular medications, hemodynamics, electrocardiographic data, and adverse events.
At six months, one year and two years following surgery, study physicians conducted scheduled research study visits that were independent of usual clinical care.

[2] = system: patients with, or at risk for coronary artery disease and scheduled for elective noncardiac surgery; assay: Same trial: in-hospital tolerance, hemodynamics and in-hospital deaths during study drug administration
Protocol: as §1, §2, §3
At six months, one year and two years following surgery, study physicians conducted scheduled research study visits that were independent of usual clinical care. Data collected during each visit included history and physical examination, a 12-lead electrocardiogram, and review of all medical records, medications and hospital admissions. Cardiac death was diagnosed if the patient died of either a myocardial infarction, dysrhythmia or congestive heart failure caused primarily by a cardiac condition.

[3] = long-term deaths, one line per patient of the atenolol group

## CC(C)NCC(O)COc1ccc(CC(N)=O)cc1 (stereo not drawn) [atenolol]
[1]; Cox multivariate, 30 deaths among 200 patients
  HAZARDS RATIO, two-year mortality, multivariate models: 0.5
[1]; Cox univariable, 30 deaths among 200 patients
  HAZARDS RATIO, two-year mortality, univariable models: 0.4
[1]; diabetics, two years, P=0.03
  hazard ratio, survival in diabetics at two years: 0.25
  improvement of survival in diabetics at two years: approximately 75%
[1]; first 6-8 months, noncardiac, placebo 10 deaths with 7 cardiac-related, P<0.001
  deaths over the first 6-8 months: one
[1]; [3]
  CAUSE OF DEATH: Respiratory failure and Ventricular tachycardia and Severe CAD, sepsis and Sepsis, ALS and Metastatic renal CA and CHF post CABG and ARDS and Cardiac arrest, lung CA and Metastatic squamous cell CA, larynx, lung
  TIME TO DEATH: 237 days and 295 days and 327 days and 385 days and 416 days and 481 days and 529 days and 582 days and 656 days
[1]; one year, versus placebo
  decrease in the rate of cardiac events within one year: 3 fold
[1]; one year, placebo 22 patients, P=0.003
  cardiac events within one year following surgery: 7 patients
[1]; placebo group 6 days
  time-to-first adverse event: 158 days
[1]; placebo group 19 days
  time to first death: 237 days
[1]; six months, placebo 12 patients, P<0.001
  cardiac events within six months following surgery: 0 patients
[1]; two years after surgery
  cardiovascular event-free survival of patients (FIG. 2): increases cardiovascular event-free survival of patients for two years after surgery
  survival of patients (FIG. 1): increases the survival of patients for two years after surgery
[1]; two years, versus placebo
  decrease in the rate of cardiac events within two years: 2 fold
[1]; two years, versus placebo, P=0.019
  reduction in all-cause mortality: 57%
[1]; two years, versus placebo, P=0.033
  reduction in cardiac mortality: 67%
[1]; two years, placebo 12 cardiac
  cardiac-related deaths over the two-year outcome period: 4 deaths
[1]; two years, placebo 21 deaths, P=0.019
  deaths (all-cause) over the two-year outcome period: 9 deaths
[1]; two years, placebo 32 patients, P=0.008
  cardiac events within two years following surgery: 16 patients
[2]; during hospitalization
  noncardiac deaths secondary to metastatic cancer during hospitalization: two
  noncardiac deaths with pulmonary failure secondary to massive infusion for fluid loss during hospitalization: one
[2]; during hospitalization, placebo two
  cardiac deaths secondary to myocardial infarction during hospitalization: one
[2]; during treatment, placebo 87 bpm, P<0.001
  average heart rate during treatment: 75 bpm
[2]; during treatment, placebo 130 bpm, P<0.001
  maximum heart rate during treatment: 113 bpm
[2]; human, in vivo
  patients tolerating the full dose: more than 60%
  patients who tolerated administration: More than 85%
[2]; human, in vivo, iv
  patients with 20% or more decrease in systolic blood pressure or heart rate: approximately 10%
[2]; in vivo, iv
  patients who developed systolic blood pressure <90 mm Hg or heart rate <40 bpm, or required therapy: no patient
[2]; in vivo, po
  incidence of hypotension or bradycardia, or other events: not associated with an increased incidence
